Active and inactive are the calls of the source.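 Rule for the calls: active = phosphorylated p38 level shifted at least 30% either way versus solvent-only control; inactive = shift under 30% either way.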
Tested on: SW620 cells, phospho-p38 western blot, 24 h
Experiment: phospho-p38 level change, either direction, late-stage follow-up, counter-screen for KLF5 inhibitor project, SW620 cells, chemiluminescent western blot, powder samples (AID 588663)
Conditions: at 10 µM; stronger effect = higher value

SMILES | inhibition
CN(C(=O)COC(=O)/C=C/c1cccc([N+](=O)[O-])c1)C1CCS(=O)(=O)C1 (stereo not drawn) | 9.32% (inactive)
CN(C(=O)CNC(=O)/C=C/c1cccc(Cl)c1)C1CCS(=O)(=O)C1 (stereo not drawn) | 15.9% (inactive)
CN(C(=O)CNC(=O)/C=C/c1cccc(Cl)c1)C1CCS(=O)(=O)CC1 | 6.58% (inactive)
